Columns and labels:
KSHV = type: cell-based, human
[1] = WST-1 cytotoxicity assay, BL-41 (KSHV negative lymphoma); type: cell-based; details: human
Description: (§1) Fig 2 Identification of newly synthesized dual inhibitors with anti-PEL activities. (A) The binding mode of (+)-JQ1 with BRD4^BD1 (PDB: 3MXF). BRD4^BD1 is shown as hot pink cartoon with gray surface. Asn140 in BRD4^BD1 is shown as sticks and colored in following pattern: atom C hot pink, atom N dark blue, and atom O yellow. (+)-JQ1 is shown as sticks and colored in following patten: atom C hot pink, atom N dark blue, atom O yellow, atom S golden, and atom Cl green. The solvent exposed region (SEG) of (+)-JQ1 are indicated with white arrow. (B) The binding modes of SAHA and entinostat with HDAC2 (PDB: 3MAX). HDAC2 is shown as blue cartoon with gray surface. Asp181 and His183 in HDAC2 are shown as sticks and colored in following pattern: atom C blue, atom N dark blue, and atom O yellow. The catalytic zinc ion in the active site of HDAC2 is shown as black sphere. SAHA is shown as sticks and colored in following pattern: atom C green, atom N dark blue, and atom O yellow. Entinostat is shown as sticks and colored in following pattern: atom C hot pink, atom N dark blue, and atom O yellow. The SEG of SAHA or entinostat is indicated with white arrow. Hydrogen bonds (H-bonds) are presented by red dash lines. (C) The HDACs/BRD4 dual inhibitors 002-011 were designed by fusing the key pharmacophores of (+)-JQ1 (pink) and HDAC inhibitors (blue), SAHA or entinostat, via various chemical linkers (green). (D) Anti-PEL activities of the new compounds. Five KSHV positive and two KSHV negative lymphoma cell lines were treated with indicated concentrations of these compounds for 72 h. Then the cytotoxicity was determined using the WST-1 assay. (+)-JQ1, SAHA and entinostat were used for the comparisons as single inhibitors. The CC50 for each compound was calculated using GraphPad Prism 5.0 software. Error bars represent S.D. for 3 independent experiments.
(§2) The cell viability following treatment with compounds was assessed by the WST-1 assay (Roche, Indianapolis, Indiana, USA) according to the manufacturer’s protocol as described previously. The absorbance signal was measured using a microplate reader (Biotek Synergy 2). The 50% cytotoxic concentration (CC50) for each compound was calculated from these dose-response curves using the software GraphPad Prism v5.0. Data were normalized as the fold change compared to the DMSO control.

BC-1 = experiment: WST-1 cytotoxicity assay, BC-1 (KSHV+ PEL); type: cell-based; details: Homo sapiens, BC1, 72 h, read-out: KSHV-infected lymphomas CC50, BC-1
Description: as §1
(§3) Fig 4 Identification of anti-PEL activities for compound 009 stereoisomers. (A) The chemical structures of anti-HDACs/BRD4 bifunctional molecules 009P1 and 009P2, as well as anti-HDACs or anti-BRD4 mono-functional molecules 009N1, 009N2, 009N3, and 009N4. (B-C) Four KSHV+ PEL cell lines were treated with indicated concentrations of 009P1, 009P2 or 009N1-N4 for 72 h, then the cytotoxicity was determined using the WST-1 assay. (D-I) BCBL-1 cells were treated with these compounds at the respective 2× CC50 for 24 h, then cell cycle (D-F) and apoptosis (G-I) were measured by flow cytometry analysis. Error bars represent S.D. for 3 independent experiments, ** = p<0.01 (vs vehicle control).
as §2

BCP-1 = experiment: WST-1 cytotoxicity assay, BCP-1 (KSHV+ PEL); type: cell-based; details: BCP-1, 72 h, read-out: KSHV-infected lymphomas CC50, BCP-1
Description: as §1, §3, §2

[2] = WST-1 cytotoxicity assay, BJAB (KSHV negative lymphoma); type: cell-based; details: human
Description: as §1, §2

BJAB.219 = experiment: WST-1 cytotoxicity assay, BJAB.219 (KSHV-infected lymphoma); type: cell-based; details: 72 h, read-out: KSHV-infected lymphomas CC50, BJAB.219
Description: as §1
BCBL-1 and iSLK.219 cells were kindly provided by Dr. Pinghui Feng (University of Southern California). BL-41, BJAB, BCP-1, BC-1, BC-3, JSC-1, HUVEC cells were purchased from American Type Culture Collection (ATCC), and cultured as recommended by the manufacturer. For making BJAB.219 cells, BJAB cells were infected with rKSHV.219 stock by spinoculation as previously reported by centrifugation at 1500×g for 60 min [31]. Then, puromycin (10 μg/ml) was added into the medium at 72 h post-infection and the medium containing puromycin was replaced twice a week. After 6-week high concentration of puromycin selection, BJAB.219 cells were then cultured in the medium with 0.5 μg/ml puromycin.
The cell viability following treatment with compounds was assessed by the WST-1 assay (Roche, Indianapolis, Indiana, USA) according to the manufacturer’s protocol as described previously. The absorbance signal was measured using a microplate reader (Biotek Synergy 2). […]

JSC-1 = experiment: WST-1 cytotoxicity assay, JSC-1 (KSHV+ PEL); type: cell-based; details: 72 h, read-out: KSHV-infected lymphomas CC50, JSC-1
Description: as §1, §3, §2

BCBL-1 = experiment: WST-1 cytotoxicity assay, BCBL-1 (KSHV+ PEL); type: cell-based; details: BCBL1, 72 h, read-out: KSHV-infected lymphomas CC50, BCBL-1
Description: as §1, §3, §2

## Cc1sc2c(c1C)C(c1ccc(Cl)cc1)=N[C@@H](CC(=O)OC(C)c1ccc(C(=O)Nc3ccccc3N)cc1)c1nnc(C)n1-2 (stereo partly drawn) [compound 009, 1-(4-((2-aminophenyl)carbamoyl)phenyl)ethyl 2-((S)-4-(4-chlorophenyl)-2,3,9-trimethyl-6H-thieno[3,2-f][1,2,4]triazolo[4,3-a][1,4]diazepin-6-yl)acetate]
KSHV
  Expression of lytic genes RTA, PF and ORF26: elevated
[1]
  CC50 at 72 h: 3370 nM
BC-1
  CC50: 96 nM
BCP-1
  CC50: 120 nM
[2]
  CC50 at 72 h: 1320 nM
BJAB.219
  CC50: 230 nM
JSC-1
  CC50: 84 nM
BCBL-1
  CC50: 20 nM

From PMC9879403, “Oncolytic strategy using new bifunctional HDACs/BRD4 inhibitors against virus-associated lymphomas” (PLOS Pathogens, 2023)
